For assay [1], the system named is B. subtilis spore and vegetative forms. As to the kind of experiment: Inactivation of B. subtilis spore and vegetative forms, CFU counted after serial dilution and culturing. The class given is cell-based, Bacillus subtilis. Here is the method:
The reactor vessel was heated to 50° C. and equilibrated with CO2 at atmospheric pressure. The stirring and agitation mechanisms were activated and the reactor vessel pressurized to 3000 psi for 40 minutes. The CO2 pressure was then allowed to drop to 1500 psi at a rate of 300 psi/minute. Agitation was carried out for 1 minute.
The loop was sealed and pressurized to 3000 psi.
The stirring was stopped and the basket was removed from the reactor vessel.
The reactor vessel was heated to 50° C. and equilibrated with CO2 at atmospheric pressure. […] The CO2 pressure was then allowed to drop to 1500 psi at a rate of 300 psi/minute.

Assay [2] relates to B. stearothermophilus spores. As to the kind of experiment: Inactivation of B. stearothermophilus spores, CFU counted after serial dilution and culturing. Particulars: for CFU/mL after treatment: start 2.3×10^6 CFU/mL. In kind it is cell-based. From the text:
The effects of using an additive in accordance with the present invention was compared using the process described by U.S. Pat. No. 6,149,864 to Dillow et al. for inactivating B. stearothermophilus spores. […] In contrast, 6.4-log inactivation (i.e., 2.3×10^6 CFU/mL to undetectable) was achieved using the process of the present invention (i.e., 1100 psi to 3000 psi with random and directional agitation, and including TFA as the chemical additive). The chemical additive was placed on a cotton ball and inserted in the chamber prior to closure. No further chemical additive was used.
The apparatus generally depicted in FIG. 1 was employed. A sample of B. stearothermophilus spores (1 mL) of greater than 10^6 CFU/mL was placed in 16 mm diameter test tubes in a stainless steel basket. Trifluoroacetic acid (4 mL) was transferred by syringe onto the surface of a cotton ball placed in the basket and water (6 mL) was placed at bottom of vessel. The basket was then loaded into the 600 mL reactor vessel. The reactor vessel was heated to 50° C. and equilibrated with CO2 at atmospheric pressure. The stirring and agitation mechanisms were activated and the reactor vessel pressurized to […] for 40 minutes. The CO2 pressure was then allowed to drop to 1100 psi at a rate of 300 psi/minute. Agitation by means of vibration of the vessel was carried out for 1 minute.
The pressurization/stirring/agitation/depressurization process was repeated a total of three times. After the third cycle, a series of three flushing cycles to remove the additive was performed by pressurizing and partial depressurizing the reactor vessel using CO2. The stirring was stopped and the basket was removed from the reactor vessel. Any remaining CFU were counted after serial dilution and culturing of both treated and untreated controls.

The subject of a further assay is Staphylococcus aureus. Briefly: Inactivation of bacteria by supercritical carbon dioxide. In kind it is cell-based. Particulars: 40° C., 2973 psi to 1500 psi, six cycles over 4 hours. An excerpt:
(§1) Maintaining the natural presentation environment for a given antigen generally enhances the protective qualities of a given vaccine. Ghost vaccine preparations result in empty bacterial shells that are intact except for holes produced by the lysis gene product when viewed by scanning electron microscopy (SEM). In contrast, organisms inactivated by supercritical carbon dioxide have intact cell walls (i.e., no lysis holes) and are not empty (i.e., the cytosolic contents are retained). Staphylococcus aureus and Pseudomonas aeruginosa were inactivated by at least 6-log with supercritical carbon dioxide at 40° C. and 2973 psi to 1500 psi for a total of six cycles over 4 hours. Escherichia coli was inactivated by at least 6-log with supercritical carbon dioxide at 34° C. and 2973 psi to 1500 psi for a total of three cycles over 0.5 hours.

The next assay deals with Pseudomonas aeruginosa. The description is as above. Particulars: 40° C., 2973 psi to 1500 psi, six cycles over 4 hours. The class given is cell-based.
Source text: as §1

A further assay deals with Escherichia coli. The assay is described as above. The settings on record: 34° C., 2973 psi to 1500 psi, three cycles over 0.5 hours. In kind it is cell-based.
Source text: as §1

The test system of the next assay is Salmonella typhimurium. As to the kind of experiment: Inactivation of S. typhimurium, serial dilutions and colony counts. In kind it is cell-based. Particulars: Example 8: no chemical additive, water 1 vol. %, 35° C., 1500 psi constant for 15 minutes, greater than 10^9 CFU/mL. Here is the method: A sample of Salmonella typhimurium (5 mL), […], of greater than 10^9 CFU/mL was placed into 16 mm test tubes in a stainless steel basket. Water was added on a cotton ball to the vessel at 1% of the total volume (1 vol. %) of the vessel. No chemical additive was placed in the vessel. The reactor vessel was heated to 35° C. and equilibrated with CO2 at atmospheric pressure. The stirring and agitation mechanisms were activated and vessel pressurized to 1500 psi and held constant for 15 minutes. The vessel was then depressurized and the contents removed for analysis. Quantitative analysis of any remaining Salmonella typhimurium in treated sample vs. untreated control was enumerated though serial dilutions and colony counts.

In a further assay the test system is B. subtilis spore forms. The settings on record: process disclosed in the Dillow '864 patent, other investigators [27]; cited from earlier work.

We go through three compounds from patent US8388944B2, “Inactivating organisms using carbon dioxide at or near its supercritical pressure and temperature conditions” (Novasterilis Inc., priority 2003, dated 2013).

SMILES strings stand for the structures. Structures can show the parent of a compound that is named as a salt.

For `CC(=O)O` [Acetic acid, acetic acid], the “kill of B. subtilis present” value in assay [1] (Example 3B: as Example 3A, samples of less than 10^6 CFU/ml) is “total kill”. The “log reduction in CFU extrapolated for greater than 10^6 CFU/ml” value in assay [1] (Example 3B: extrapolated from total kill of samples below 10^6 CFU/ml) is listed as 6 log. Moreover, the log reduction entry in assay [1] (Example 7: acetic acid 6 mL then 4 mL per cycle in CO2, 50° C., 3000 psi 40 minutes to 1500 psi, three cycles) is given as “at least 6 log”.
Take `O=C(O)C(F)(F)F` [TFA, trifluoroacetic acid]: the log inactivation in assay [2] (TFA as chemical additive in supercritical CO2, 1100 psi to 3000 psi, random and directional agitation) is listed as 6.4 log. Further, in assay [2] (TFA as chemical additive in supercritical CO2, 1100 psi to 3000 psi), the CFU/mL after treatment entry is “undetectable”.
For `O=C=O` [supercritical carbon dioxide, carbon dioxide], the log inactivation result in the assay with Staphylococcus aureus is on record as “at least 6 log”; with Pseudomonas aeruginosa, “at least 6 log”; with Escherichia coli it was “at least 6 log”; in assay [2] (no chemical additive, Dillow '864 conditions, three cycles of 60° C. for two hours, 1500 psi to 3000 psi, random agitation), 1.0 log. In the assay on Salmonella typhimurium, this compound registered a log reduction of 9 log. The “log reduction in B. subtilis spore forms” value in the assay on B. subtilis spore forms is on record as 3.5 log. In assay [2] (no chemical additive, three cycles of 60° C. for two hours, 1500 psi to 3000 psi), the CFU/mL after treatment is 2.1×10^5 CFU/mL.
